Assay results: ChEMBL document CHEMBL1201862, “PubChem BioAssay data set” (2004)
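Dose response: 5 concentrations. Exposure: 48 h. Format: 96-well plates. Endpoint: linear interpolation; highest concentration if not reached. At the GI50, growth is halved.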 The source made the active and inactive calls. No stated cut-off is given here; in the data, active = GI50 up to about 1.1 µM and inactive = higher.

What was measured:
Assay in all cases: inhibition of tumour cell growth, NCI panel, 48 h
786-0 = tested on: 786-0
ACHN = tested on: ACHN
CAKI-1 = tested on: CAKI-1
HCC 2998 = tested on: HCC 2998
HCT-116 = tested on: HCT-116
K562 = tested on: K562
LOX IMVI = tested on: LOX IMVI
OVCAR-4 = tested on: OVCAR-4
RPMI-8226 = tested on: RPMI-8226
SK-MEL-28 = tested on: SK-MEL-28
SK-MEL-5 = tested on: SK-MEL-5
SNB-19 = tested on: SNB-19
SW-620 = tested on: SW-620
UACC-257 = tested on: UACC-257
A498 = tested on: A498

Row | SMILES | GI50 (786-0) | GI50 (ACHN) | GI50 (CAKI-1) | GI50 (HCC 2998) | GI50 (HCT-116) | GI50 (K562) | GI50 (LOX IMVI) | GI50 (OVCAR-4) | GI50 (RPMI-8226) | GI50 (SK-MEL-28) | GI50 (SK-MEL-5) | GI50 (SNB-19) | GI50 (SW-620) | GI50 (UACC-257) | GI50 (A498)
1 | CC(=O)O[C@H]1C=CC23OC(=O)[C@]1(C)[C@H]2[C@H](C(=O)O)C12CC(=O)[C@@](CO)(CC[C@H]13)C2 | > 100 µM (inactive) | > 100 µM (inactive) | > 100 µM (inactive) | > 100 µM (inactive) | > 100 µM (inactive) | > 100 µM (inactive) | > 100 µM (inactive) | > 100 µM (inactive) | > 100 µM (inactive) | > 100 µM (inactive) | > 100 µM (inactive) | > 100 µM (inactive) | > 100 µM (inactive) | > 100 µM (inactive) | –
2 | COC(=O)/C=C(C)/C=C/c1c(C)c(C(C)=O)c(C)n1C | > 100 µM (inactive) | > 100 µM (inactive) | 63.5 µM (inactive) | > 100 µM (inactive) | > 100 µM (inactive) | 32.1 µM (inactive) | > 100 µM (inactive) | 80.9 µM (inactive) | 57.7 µM (inactive) | – | – | > 100 µM (inactive) | > 100 µM (inactive) | > 100 µM (inactive) | > 100 µM (inactive)
3 | CSC(=S)NNC(=O)c1ccncc1 | 16.2 µM (inactive) | 18.1 µM (inactive) | 21.1 µM (inactive) | 23.6 µM (inactive) | 21 µM (inactive) | 19.2 µM (inactive) | 16.8 µM (inactive) | – | 22.3 µM (inactive) | 18.9 µM (inactive) | 23.7 µM (inactive) | 22.7 µM (inactive) | 11.3 µM (inactive) | 23.8 µM (inactive) | 70 µM (inactive)
4 | O=C1OC(CC(=O)c2ccc(F)cc2)C(Cl)=C1Cl (configuration not stated) | 18.5 µM (inactive) | 34.4 µM (inactive) | 39.4 µM (inactive) | 16.5 µM (inactive) | 23.3 µM (inactive) | 33 µM (inactive) | 16.8 µM (inactive) | 19.6 µM (inactive) | 34.2 µM (inactive) | 43.3 µM (inactive) | 25.5 µM (inactive) | 22.3 µM (inactive) | 23.3 µM (inactive) | 16.9 µM (inactive) | –
5 | O=C(CC1(O)C(=O)Nc2ccc([N+](=O)[O-])cc21)c1ccc(Br)cc1 (configuration not stated) | 61 µM (inactive) | 56.6 µM (inactive) | – | > 100 µM (inactive) | 37.2 µM (inactive) | 54.6 µM (inactive) | 60.4 µM (inactive) | 49.7 µM (inactive) | 35.5 µM (inactive) | > 100 µM (inactive) | – | 44.3 µM (inactive) | > 10 µM (inactive) | 69.8 µM (inactive) | 23.2 µM (inactive)
6 | COc1cc2c(c(OC)c1OC)-c1ccc(SC)c(=O)cc1[C@@H](NCc1ccccc1[N+](=O)[O-])CC2 | 0.0246 µM (active) | 0.0439 µM (active) | 0.01 µM (active) | 0.0128 µM (active) | 0.00644 µM (active) | 0.00369 µM (active) | 0.00834 µM (active) | 0.719 µM (active) | 0.00671 µM (active) | 0.00444 µM (active) | 0.00411 µM (active) | 0.0246 µM (active) | 0.00333 µM (active) | 0.00561 µM (active) | 0.00417 µM (active)
7 | O=C(/C=C/c1ccc(OCCCOc2ccc(/C=C/C(=O)c3ccc(Cl)cc3)cc2)cc1)c1ccc(Cl)cc1 | > 100 µM (inactive) | > 100 µM (inactive) | > 100 µM (inactive) | > 100 µM (inactive) | > 100 µM (inactive) | > 100 µM (inactive) | > 100 µM (inactive) | > 100 µM (inactive) | > 100 µM (inactive) | > 100 µM (inactive) | > 100 µM (inactive) | > 100 µM (inactive) | > 100 µM (inactive) | > 100 µM (inactive) | –
8 | CCNc1nc2c(=O)n(C)c(=O)n(C)c2s1 | > 100 µM (inactive) | > 100 µM (inactive) | – | > 100 µM (inactive) | > 100 µM (inactive) | > 100 µM (inactive) | > 100 µM (inactive) | > 100 µM (inactive) | > 100 µM (inactive) | > 100 µM (inactive) | – | > 100 µM (inactive) | > 100 µM (inactive) | > 100 µM (inactive) | > 100 µM (inactive)
9 | [O-][n+]1c2cc3c(cc2[n+]([O-])c2c(O)cccc21)CN(CCN1CCOCC1)C3 | 16.8 µM (inactive) | 5.83 µM (inactive) | 48.9 µM (inactive) | – | 11.4 µM (inactive) | 12 µM (inactive) | – | 62.2 µM (inactive) | 18.4 µM (inactive) | > 100 µM (inactive) | 56 µM (inactive) | 73.5 µM (inactive) | – | 23.4 µM (inactive) | 44.6 µM (inactive)
10 | O=C(/C=C1\Nc2ccccc2C(=O)N1c1ccccc1Cl)c1ccccc1 | > 100 µM (inactive) | > 100 µM (inactive) | > 100 µM (inactive) | > 100 µM (inactive) | 36.5 µM (inactive) | 87.5 µM (inactive) | > 100 µM (inactive) | 67.5 µM (inactive) | – | > 100 µM (inactive) | > 100 µM (inactive) | > 100 µM (inactive) | > 100 µM (inactive) | > 100 µM (inactive) | > 100 µM (inactive)
11 | COc1cccc(NC(=O)C(C)(C)C)c1C=O | > 100 µM (inactive) | 56.2 µM (inactive) | 56.6 µM (inactive) | 92 µM (inactive) | 35.6 µM (inactive) | 26.9 µM (inactive) | 46.1 µM (inactive) | 46.1 µM (inactive) | 19.4 µM (inactive) | > 100 µM (inactive) | 88.1 µM (inactive) | 51.2 µM (inactive) | 34.7 µM (inactive) | 65.8 µM (inactive) | > 100 µM (inactive)
12 | COC(=O)C12C3C4C1C1C2C3C41C(=O)N(C(C)C)C(C)C (configuration not stated) | > 100 µM (inactive) | > 100 µM (inactive) | – | > 100 µM (inactive) | > 100 µM (inactive) | > 100 µM (inactive) | – | > 100 µM (inactive) | – | > 100 µM (inactive) | > 100 µM (inactive) | > 100 µM (inactive) | > 100 µM (inactive) | > 100 µM (inactive) | > 100 µM (inactive)
13 | COc1cccc(NC(=O)C(=O)C2C=CCS2(=O)=O)c1 (configuration not stated) | > 100 µM (inactive) | > 100 µM (inactive) | > 100 µM (inactive) | > 100 µM (inactive) | > 100 µM (inactive) | > 100 µM (inactive) | > 100 µM (inactive) | > 100 µM (inactive) | > 100 µM (inactive) | > 100 µM (inactive) | > 100 µM (inactive) | > 100 µM (inactive) | > 100 µM (inactive) | > 100 µM (inactive) | > 100 µM (inactive)
14 | CCOC(=O)C1C=C2O[C@@H]3OC4(CCCCC4)O[C@@H]3C2C2C(=O)CCC(=O)[C@@]12C(=O)OC (some centres not stated) | > 100 µM (inactive) | > 100 µM (inactive) | > 100 µM (inactive) | > 100 µM (inactive) | > 100 µM (inactive) | > 100 µM (inactive) | > 100 µM (inactive) | > 100 µM (inactive) | > 100 µM (inactive) | > 100 µM (inactive) | > 100 µM (inactive) | > 100 µM (inactive) | > 100 µM (inactive) | > 100 µM (inactive) | > 100 µM (inactive)
15 | NC1=NC(=O)C(CC(=O)Nc2ccc(Cl)cc2Cl)S1 (configuration not stated) | > 100 µM (inactive) | > 100 µM (inactive) | > 100 µM (inactive) | > 100 µM (inactive) | – | > 100 µM (inactive) | > 100 µM (inactive) | > 100 µM (inactive) | > 100 µM (inactive) | > 100 µM (inactive) | > 100 µM (inactive) | > 100 µM (inactive) | > 100 µM (inactive) | > 100 µM (inactive) | 57.4 µM (inactive)
16 | O=C(c1ccccc1)C(c1ccccc1)C1(O)C(=O)Nc2ccc([N+](=O)[O-])cc21 (configuration not stated) | > 100 µM (inactive) | 33 µM (inactive) | > 100 µM (inactive) | > 100 µM (inactive) | > 100 µM (inactive) | 42.7 µM (inactive) | 69.7 µM (inactive) | 64.6 µM (inactive) | 37.7 µM (inactive) | > 100 µM (inactive) | 24 µM (inactive) | > 100 µM (inactive) | > 100 µM (inactive) | – | > 100 µM (inactive)
17 | Cc1ccc(C)c(NC(=O)/C(=N\NC(N)=S)C(C#N)c2ccccc2)c1 (configuration not stated) | > 100 µM (inactive) | > 100 µM (inactive) | > 100 µM (inactive) | > 100 µM (inactive) | > 100 µM (inactive) | > 100 µM (inactive) | – | > 100 µM (inactive) | > 100 µM (inactive) | > 100 µM (inactive) | > 100 µM (inactive) | > 100 µM (inactive) | > 100 µM (inactive) | > 100 µM (inactive) | > 100 µM (inactive)
18 | O=C(CC(C(=O)c1ccsc1)c1cccs1)c1cccs1 (configuration not stated) | > 100 µM (inactive) | 99.1 µM (inactive) | – | > 100 µM (inactive) | 43.4 µM (inactive) | 73.5 µM (inactive) | 68.2 µM (inactive) | 48.6 µM (inactive) | 33.1 µM (inactive) | > 100 µM (inactive) | 22.9 µM (inactive) | > 100 µM (inactive) | > 100 µM (inactive) | 51.4 µM (inactive) | 66.4 µM (inactive)
19 | COC(OC)C(C)CC(=O)N(C)C (configuration not stated) | > 100 µM (inactive) | > 100 µM (inactive) | – | > 100 µM (inactive) | > 100 µM (inactive) | > 100 µM (inactive) | > 100 µM (inactive) | > 100 µM (inactive) | > 100 µM (inactive) | > 100 µM (inactive) | > 100 µM (inactive) | > 100 µM (inactive) | > 100 µM (inactive) | – | > 100 µM (inactive)
